From ChEMBL document CHEMBL3045451, “Isolation and characterization of fungal inhibitors from Epichloë festucae” (2000)

Experiments:
[1] = tested on: Cryphonectria parasitica; assay: Fungicidal activity against Cryphonectria parasitica assessed as inhibition of fungal growth at 12.5 ug after 7 days; type: functional; details: 168 h, read-out: DIZ
[2] = tested on: Cryphonectria parasitica; assay: Fungicidal activity against Cryphonectria parasitica assessed as inhibition of fungal growth at 25 ug after 7 days; type: functional; details: 168 h, read-out: DIZ
[3] = tested on: Cryphonectria parasitica; assay: Fungicidal activity against Cryphonectria parasitica assessed as inhibition of fungal growth at 50 ug after 7 days; type: functional; details: 168 h, read-out: DIZ
[4] = tested on: Cryphonectria parasitica; assay: Fungicidal activity against Cryphonectria parasitica assessed as inhibition of fungal growth at 100 ug after 7 days; type: functional; details: 168 h, read-out: DIZ
[5] = tested on: Laetisaria fuciformis; assay: Fungicidal activity against Laetisaria fuciformis assessed as inhibition of fungal growth at 10 to 1000 mg/L; type: functional, organism-based
[6] = tested on: Magnaporthiopsis poae; assay: Fungicidal activity against Magnaporthe poae assessed as inhibition of fungal growth at 10 to 1000 mg/L; type: functional, organism-based
[7] = tested on: Rhizoctonia solani; assay: Fungicidal activity against Rhizoctonia solani assessed as inhibition of fungal growth at 10 to 1000 mg/L; type: functional, organism-based

Row | Structure (SMILES) | zone of inhibition at 12.5 µg/disc [1] | zone of inhibition at 25 µg/disc [2] | zone of inhibition at 50 µg/disc [3] | zone of inhibition at 100 µg/disc [4] | growth inhibition (GI) [5] | growth inhibition (GI) [6] | growth inhibition (GI) [7]
1 | COC(=O)c1c[nH]c2ccccc12 | 4 mm | 6 mm | 8 mm | 11 mm |  |  | 
2 | O=Cc1c[nH]c2ccccc12 [3-FORMYLINDOLE] | 7 mm | 10 mm | 13 mm | 15 mm |  |  | 
3 | CC(C)=CCC[C@@](C)(O)[C@H]1CC[C@](C)(O)[C@@H]1C [CYCLONERODIOL] | 0 mm | 0 mm | 0 mm | 13 mm |  |  | 
4 | CC(=O)NC(C)=O [DIACETAMIDE] | 3 mm | 7 mm | 10 mm | 14 mm |  |  | 
5 | O=C(O)Cc1c[nH]c2ccccc12 [INDOLE-3-ACETIC ACID] | 12 mm | 14 mm | 16 mm | 21 mm | Dose-dependent effect | Dose-dependent effect | Dose-dependent effect
6 | OCCc1c[nH]c2ccccc12 [TRYPTOPHOL] | 7 mm | 9 mm | 11 mm | 14 mm | Dose-dependent effect | Dose-dependent effect | Dose-dependent effect
